PMC10322960 (European Journal of Drug Metabolism and Pharmacokinetics, 2023)

Test: Phase 1 clinical drug–drug interaction study, safety assessment
Format: in vivo, human
Settings: Cohort 1, 12 subjects; mild in severity

Which results are given for `CCC(C)n1ncn(-c2ccc(N3CCN(c4ccc(OCC5COC(Cn6cncn6)(c6ccc(Cl)cc6Cl)O5)cc4)CC3)cc2)c1=O` (centres unmarked) [itraconazole, reference compound]?
number of treatment-emergent AEs considered related to the drug: 5; subjects with treatment-emergent AEs considered related to the drug: 16.7%
